# What was measured:
# Hs578T, Cal51 cells = experiment: Drug sensitivity curves for splicing inhibitors in cells without and with SF3B1 suppression; format: cell-based, human
# Text: FIG. 26A is a series of graphs showing drug sensitivity curves for indicated splicing inhibitors (“NSC-95397”, “pladienolide B”, “spliceostatin A”) in cells (“Hs578T”, “Cal51”) without and with SF3B1 suppression.
# SF3B1 = experiment: Immunoblot of SF3B1 expression in Cal51 cells treated with DUB inhibitors; format: cell-based, human; settings: treated for 4 or 24 hours
# Method: FIG. 37 is an immunoblot showing SF3B1 expression in Cal51 cells treated with de-ubiquitinase (DUB) inhibitors (“PR-619”, “b-AP15”, “SJB3-019A”) for 4 or 24 hours. For all figures, *p<0.05, **p<0.01, ***p<0.001 unless otherwise indicated, and error bars represent +/−standard deviation.
# In addition to SF3B1 RNA interference and SF3B inhibition, SF3B1 suppression can be exerted by deubiquitinase (DUB) inhibition. […] Therefore, DUB inhibitors may be capable of killing SF3B1^loss cells specifically.
# For denaturing protein immunoblots, cells were washed in ice cold PBS and lysed in 1× RIPA buffer (10 mM Tris-Cl Ph 8.0, 1 mM EDTA, 1% Triton X-100, 0.1% SDS and 140 mM NaCl) supplemented with lx protease and phosphatase inhibitor cocktail (PI-290, Boston Bioproducts). Lysates were sonicated in a bioruptor (Diagenode) for 5 minutes (medium intensity) and cleared by centrifugation at 15000×g for 15 min at 4 C. Proteins were electrophoresed on polyacrylamide gradient gels (Life Technologies) and detected by chemiluminescence. For native western blotting, cells were washed in ice cold PBS and lysed in 1× sonication buffer (10% Glycerol, 25 mM HEPES pH 7.4, 10 mM MgCl2) supplemented with protease and phosphatase inhibitors. Coomassie blue native PAGE western blots were run according the manufacturer's instructions (Life Technologies).
# [1] = system: CRISPR^frameshift-loss xenografts; experiment: Xenograft growth with doxycycline-induced SF3B1 suppression; format: in vivo, nude mice; settings: doxycycline-induced shRNA, p=0.001
# Text: (§1) To test the effects of SF3B1 suppression in vivo, xenografts were generated using luciferase-labeled cell lines from the CRISPR^frameshift-loss and CRISPR^neutral#1 cells containing TR-shSF3B1#3. Animals were placed on doxycycline upon detection of palpable tumors. CRISPR^frameshift-loss and CRISPR^neutral#1 cells generated tumors of similar volume in the absence of doxycycline (FIG. 34; p=0.7, repeated measures ANOVA).
# All animal husbandry was done with the approval of the Dana-Farber Cancer Institute IACUC. 1×10^6 CRISPR^neutral#1 or CRISPR^frameshift-loss cells expressing TR-shSF3B1 #3 were subcutaneously injected into opposing flanks of nude mice (Foxn1 nu/nu, Harlan). Animals were randomized to control group or doxycycline treatment after detection of a palpable tumor on either flank. Mice in the doxycycline treatment arm were continuously fed a doxycycline diet (2,000 ppm). Mice were sacrificed at the end of the experiment, or when endpoints were reached based on failure to thrive according to IACUC recommendation. […]
# A custom image analysis pipeline was used to systematically quantify Ki67+ cells from tumor xenografts using CellProfilier. A minimum of 3 tumors per group, totaling at least 2,440 nuclei per tumor, was used to quantify the ratio of Ki67+ cells. At least 5 individual and random microscopic images from each tumor were analyzed.
# [2] = system: SF3B1^loss HCC1954 xenografts; experiment: Growth of established xenograft tumors without or with doxycycline; format: in vivo; settings: with doxycycline vs without
# Text: FIG. 36B is a graph showing growth of established tumors for HCC1954 xenografts without doxycycline (“−Dox”, n=13) or with doxycycline (“+Dox”, n=12) using TR-shSF3B1 #3. ***p≤0.001.
# as §1
# [3] = system: SF3B1^neutral Cal51 xenografts; experiment: as above; format: in vivo; settings: with doxycycline vs without
# Text: FIG. 36A is a graph showing growth of established tumors for Cal51 xenografts without doxycycline (“−Dox”, n=13) or with doxycycline (“+Dox”, n=12) using TR-shSF3B1 #3.
# as §1
molecule,measurement,setting,value
O=C1C(SCCO)=C(SCCO)C(=O)c2ccccc21 [NSC95397],increased effects on cells with SF3B1 copy-loss or suppression,"Hs578T, Cal51 cells; cells with SF3B1 copy-loss or suppression",failed to exhibit increased effects
N#CSc1cc(SC#N)c(N)nc1N [PR-619],SF3B1 expression,SF3B1,significant decrease
O=C1c2ccccc2C(=O)c2oc(-c3cccnc3)nc21 [SJB3-019A],SF3B1 expression,SF3B1,significant decrease
CO[C@]1(C)C[C@@]2(CO2)[C@H](O)[C@@H](/C=C/C(C)=C/C[C@@H]2O[C@H](C)[C@H](NC(=O)/C=C\[C@H](C)OC(C)=O)C[C@@H]2C)O1 [Spliceostatin A],cell death,"Hs578T, Cal51 cells; Hs578T breast cancer cells, when suppression of SF3B1 expression is induced",increased cell death
C=CC(=O)N1C/C(=C\c2ccc([N+](=O)[O-])cc2)C(=O)/C(=C/c2ccc([N+](=O)[O-])cc2)C1 [b-AP15],SF3B1 expression,SF3B1,significant decrease
"TR-shSF3B1#3: doxycycline-inducible shRNA targeting SF3B1 in pLKO-Tet-puro, SEQ ID NO: 12/13 (nucleic acid) sense: CCGGCAACTCCTTATGGTATCGAATCTCGAGATTCGATACCATAAGGAGTTGTTTTTG antisense: AATTCAAAAACAACTCCTTATGGTATCGAATCTCGAGATTCGATACCATAAGGAGTTG",number of proliferative Ki67+ cells,[1]; Ki67 immunohistochemistry,reduced
same,growth of tumor,[1]; luminescent quantification,reduced the growth of tumor
same,tumor growth,[2],reduced tumor growth was observed
same,tumor growth,[3],not in SF3B1^neutral Cal51 xenografts

# Reference: patent US20190147975A1, “SF3B1 SUPPRESSION AS A THERAPY FOR TUMORS HARBORING SF3B1 COPY LOSS” (DANA-FARBER CANCER INSTITUTE, INC., priority 2016, published 2019)
